One experiment has as its target T1, 5-Lipoxygenase (Rattus norvegicus, UniProt P12527).
T1 construct: endogenous in cells; host or cells: RBL-1 (rat basophilic leukemia) cells
T1 sequence (P12527 1-673): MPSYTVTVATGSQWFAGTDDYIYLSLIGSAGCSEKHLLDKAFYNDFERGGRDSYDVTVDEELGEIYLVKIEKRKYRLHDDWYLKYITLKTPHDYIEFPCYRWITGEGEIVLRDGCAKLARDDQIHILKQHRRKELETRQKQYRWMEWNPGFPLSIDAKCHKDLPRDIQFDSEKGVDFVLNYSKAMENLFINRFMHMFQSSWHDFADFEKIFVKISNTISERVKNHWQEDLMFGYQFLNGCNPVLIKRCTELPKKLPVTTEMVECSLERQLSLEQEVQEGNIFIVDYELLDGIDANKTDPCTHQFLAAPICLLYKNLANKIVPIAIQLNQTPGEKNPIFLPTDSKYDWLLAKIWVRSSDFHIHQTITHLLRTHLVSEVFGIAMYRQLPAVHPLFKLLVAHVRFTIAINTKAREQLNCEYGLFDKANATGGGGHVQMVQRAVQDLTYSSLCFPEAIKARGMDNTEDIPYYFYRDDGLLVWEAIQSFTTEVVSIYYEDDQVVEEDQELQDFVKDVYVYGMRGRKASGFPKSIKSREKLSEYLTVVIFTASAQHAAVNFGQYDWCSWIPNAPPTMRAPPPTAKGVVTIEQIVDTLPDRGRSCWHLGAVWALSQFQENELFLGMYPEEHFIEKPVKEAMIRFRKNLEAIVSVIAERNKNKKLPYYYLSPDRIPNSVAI
The experiment can be described thus: 5-Lipoxygenase inhibiting action: 5-HETE production in rat basophilic leukemia (RBL-1) cells (HPLC). Format: cell-based. As to conditions: read-out: Effect of Inhibiting 5-Lipoxygenase, % Inhibition (IE). How it is done: In 0.5 ml of MCM (mast cell medium) was suspended 10^7 of rat basophilic leukemia (RBL-1) cells. To this suspension was added the test solution previously prepared [consisting of 0.5 ml of MCM, 50 μg of arachidonic acid, 10 μg of calcium ionophore A-23187 and the test compound (final concentrations 10 μm, 1 μm, 0.1 μm and 0.01 μm)], and the reaction was allowed to proceed at 37° C. for 20 minutes. To the reaction mixture was added 4 ml of ethanol, which was shaken sufficiently, followed by leaving the resultant mixture standing for 10 minutes at room temperatures. The resultant mixture was subjected to a centrifuge (2000 rpm) for 10 minutes, then the supernatant was separated. Thus-separated supernatant was concentrated to dryness under reduced pressure. To the concentrate was added 0.5 ml of a 60% aqueous methanol. A 100μl Portion of this solution was taken and subjected to high performance liquid chromatography to perform quantitative determination of 5-HETE (5-hydroxyeicosatetraenoic acid). UV absorption of 5-HETE at 237 nm was measured with a UV absorption monitor. The inhibitory effect (IE) of 5-HETE is expressed by (1-b/a)×100. In this formula, a means the height of the peak or the area of the peak in the case of presence of no compound (I), while b means the height of the peak or the area of the peak in the case of presence of the compound (I).

A further experiment deals with T2, 12-Lipoxygenase (Rattus norvegicus, UniProt F1LQ70).
T2 construct: from tissue; host or cells: Wistar rat platelets (PRP mixed with PPP, from citrated aortic blood)
T2 sequence (F1LQ70 1-663): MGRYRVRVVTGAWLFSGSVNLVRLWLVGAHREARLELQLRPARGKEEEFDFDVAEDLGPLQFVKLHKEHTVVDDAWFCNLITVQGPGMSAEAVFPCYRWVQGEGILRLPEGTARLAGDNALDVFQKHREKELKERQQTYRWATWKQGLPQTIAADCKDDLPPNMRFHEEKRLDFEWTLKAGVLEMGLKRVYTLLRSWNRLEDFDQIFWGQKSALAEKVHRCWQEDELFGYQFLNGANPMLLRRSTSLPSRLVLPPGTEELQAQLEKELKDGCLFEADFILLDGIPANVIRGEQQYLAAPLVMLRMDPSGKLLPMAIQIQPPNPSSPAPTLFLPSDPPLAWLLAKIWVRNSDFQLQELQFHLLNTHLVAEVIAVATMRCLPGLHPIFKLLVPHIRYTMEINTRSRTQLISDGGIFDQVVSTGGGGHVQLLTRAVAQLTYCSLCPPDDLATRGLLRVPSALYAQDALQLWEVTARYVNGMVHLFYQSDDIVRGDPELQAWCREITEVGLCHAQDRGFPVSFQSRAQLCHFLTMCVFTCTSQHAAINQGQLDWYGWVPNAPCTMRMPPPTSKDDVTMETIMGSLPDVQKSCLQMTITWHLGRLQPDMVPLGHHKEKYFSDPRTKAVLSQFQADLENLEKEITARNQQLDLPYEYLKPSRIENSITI
The experiment can be described thus: 12-Lipoxygenase inhibitory action: 12-HETE production in Wistar rat platelets (HPLC). Format: cell-based. As to conditions: read-out: 12-Lipoxygenase Inhibitory Action, % Inhibition (IE); for inhibition at 100 µM: 10^-4 M; for inhibition at 10 µM: 10^-5 M; for inhibition at 1 µM: 10^-6 M; for inhibition at 0.1 µM: 10^-7 M. Here is the method: Through the descending aorta of a Wistar rat, 10 ml of blood was collected, under anesthesia, together with citric acid of a volume corresponding to 10%. PRP and PPP were respectively prepared, then they were mixed to make the number of platelets to be 10^9 /ml. To 2.5 μl each of the test solutions prepared in advance (final concentrations of the test compounds : 100 μm, 10 μm, 1 μm and 0.1 μm) was added 0.225 ml of the platelet solution. The respective solutions were kept at 37° C. for 5 minutes, to which was added 25 μl each of arachidonic acid solution (50 μg/ml) , then the respective mixtures were shaken immediately. The reaction was allowed to proceed at 37° C. for 15 minutes, and there was added ethanol (1 ml) to stop the reaction. The reaction mixture was subjected to a centrifuge (2000 rpm) for 5 minutes. One ml of the supernatant was taken, which was mixed with 1 ml of water. 100 μl of this mixture solution was subjected to high performance liquid chromatography to quantitatively determine 12-HETE. The detection was conducted at 240 nm. The calculation of the inhibition rate was conducted in a manner as in the case of 5-HETE.

With `Cc1c(C)c2c(c(C)c1O)CC(C)(CC#N)O2` (stereo not shown) [Compound 5, 5-hydroxy-2-cyanomethyl-2,4,6,7-tetramethyl-2,3-dihydrobenzofuran], the inhibition at 10 µM amounted to 100% on 5-Lipoxygenase (10^-5 M) and 78% at 12-Lipoxygenase. In addition, the inhibition at 1 µM on 5-Lipoxygenase (10^-6 M) was 100%; on 12-Lipoxygenase it was 14%. For the same compound, on 5-Lipoxygenase (10^-7 M), the inhibition at 0.1 µM amounted to 57%. Besides, the inhibition at 0.01 µM on 5-Lipoxygenase (10^-8 M) stood at 0%. In addition, the inhibition at 100 µM on 12-Lipoxygenase came to 97%.

Take `Cc1c(C)c2c(c(C)c1O)CC(C)(/C=C\Cc1ccccc1)O2` (stereo not shown) [Compound 15]: on 12-Lipoxygenase, the inhibition at 100 µM is 100%, the inhibition at 10 µM stood at 100%, the inhibition at 1 µM stood at 99% and the inhibition at 0.1 µM worked out at 25%.

`Cc1c(C)c2c(c(C)c1O)CC(C)(/C=C/Cc1ccccc1)O2` (stereo not shown) [Compound 17]: on 12-Lipoxygenase, the inhibition at 100 µM was 100%, the inhibition at 10 µM was found to be 99%, the inhibition at 1 µM came out at 98% and the inhibition at 0.1 µM came to 22%.

`Cc1c(C)c2c(c(C)c1O)CC(C)(/C=C/c1ccccc1)O2` (stereo not shown) [Compound 18]: on 12-Lipoxygenase, the inhibition at 100 µM was 100%, the inhibition at 10 µM was 100%, the inhibition at 1 µM is 89% and the inhibition at 0.1 µM stood at 18%.

Regarding `Cc1c(C)c2c(c(C)c1O)CC(C)(CCCc1ccccc1)O2` (stereo not shown) [Compound 20], on 12-Lipoxygenase, the inhibition at 100 µM was determined as 100%, the inhibition at 10 µM is 99%, the inhibition at 1 µM stood at 97% and the inhibition at 0.1 µM turned out to be 9%.

As to `Cc1c(C)c2c(c(C)c1O)CC(C)(/C=C\CCc1ccccc1)O2` (stereo not shown) [Compound 21], at 12-Lipoxygenase, the inhibition at 100 µM came out at 100%, the inhibition at 10 µM was found to be 100%, the inhibition at 1 µM is 98% and the inhibition at 0.1 µM stood at 21%.

Take `Cc1c(C)c2c(c(C)c1O)CC(C)(CCCCc1ccccc1)O2` (stereo not shown) [Compound 23]: on 12-Lipoxygenase, the inhibition at 100 µM stood at 100%, the inhibition at 10 µM was 100%, the inhibition at 1 µM stood at 92% and the inhibition at 0.1 µM came out at 19%.

With `COc1ccc(/C=C\C2(C)Cc3c(C)c(O)c(C)c(C)c3O2)cc1` (stereo not shown) [Compound 24], on 12-Lipoxygenase, the inhibition at 100 µM stood at 100%, the inhibition at 10 µM amounted to 99%, the inhibition at 1 µM is 98% and the inhibition at 0.1 µM worked out at 13%.

Consider `COc1ccc(CCC2(C)Cc3c(C)c(O)c(C)c(C)c3O2)cc1` (stereo not shown) [Compound 26], for which, at 12-Lipoxygenase, the inhibition at 100 µM is 100%, the inhibition at 10 µM amounted to 99% and the inhibition at 1 µM worked out at 28%.

With `COc1cccc(/C=C\C2(C)Cc3c(C)c(O)c(C)c(C)c3O2)c1` (stereo not shown) [Compound 27], on 12-Lipoxygenase, the inhibition at 100 µM is 100%, the inhibition at 10 µM turned out to be 100%, the inhibition at 1 µM is 99% and the inhibition at 0.1 µM was found to be 19%.

For the compound `COc1cccc(CCC2(C)Cc3c(C)c(O)c(C)c(C)c3O2)c1` (stereo not shown) [Compound 29], at 12-Lipoxygenase, the inhibition at 100 µM is 100%, the inhibition at 10 µM turned out to be 99%, the inhibition at 1 µM came out at 58% and the inhibition at 0.1 µM worked out at 7%.

On to `Cc1c(C)c2c(c(C)c1O)CC(C)(/C=C\c1ccc(F)cc1)O2` (stereo not shown) [Compound 30], for which, on 12-Lipoxygenase, the inhibition at 100 µM was 100%, the inhibition at 10 µM was 100%, the inhibition at 1 µM was 98% and the inhibition at 0.1 µM was determined as 21%.

As for `Cc1c(C)c2c(c(C)c1O)CC(C)(CCc1ccc(F)cc1)O2` (stereo not shown) [Compound 32], on 12-Lipoxygenase, the inhibition at 100 µM was 99%, the inhibition at 10 µM was 99%, the inhibition at 1 µM was 45% and the inhibition at 0.1 µM came out at 2%.

In the case of `Cc1ccc(/C=C\C2(C)Cc3c(C)c(O)c(C)c(C)c3O2)cc1` (stereo not shown) [Compound 33], on 12-Lipoxygenase, the inhibition at 100 µM was 100%, the inhibition at 10 µM was 100%, the inhibition at 1 µM is 28% and the inhibition at 0.1 µM was found to be 2%.

In the case of `Cc1ccc(CCC2(C)Cc3c(C)c(O)c(C)c(C)c3O2)cc1` (stereo not shown) [Compound 35], on 12-Lipoxygenase, the inhibition at 100 µM is 99%, the inhibition at 10 µM was found to be 99%, the inhibition at 1 µM came to 49% and the inhibition at 0.1 µM turned out to be 8%.

`CCC/C=C\C1(C)Cc2c(C)c(O)c(C)c(C)c2O1` (stereo not shown) [Compound 36]: at 12-Lipoxygenase, the inhibition at 100 µM turned out to be 100%, the inhibition at 10 µM was determined as 100%, the inhibition at 1 µM was determined as 100% and the inhibition at 0.1 µM was 97%.

Consider `CCCCCC1(C)Cc2c(C)c(O)c(C)c(C)c2O1` (stereo not shown) [Compound 37], for which, on 12-Lipoxygenase, the inhibition at 100 µM is 100%, the inhibition at 10 µM stood at 100%, the inhibition at 1 µM turned out to be 31% and the inhibition at 0.1 µM came out at 2%.

In the case of `CCCCCCC/C=C\C1(C)Cc2c(C)c(O)c(C)c(C)c2O1` (stereo not shown) [Compound 38], at 12-Lipoxygenase, the inhibition at 100 µM was determined as 99%, the inhibition at 10 µM amounted to 99%, the inhibition at 1 µM was determined as 90% and the inhibition at 0.1 µM is 3%.

With `CCCCCCCCCC1(C)Cc2c(C)c(O)c(C)c(C)c2O1` (stereo not shown) [Compound 39], at 12-Lipoxygenase, the inhibition at 100 µM came to 100%, the inhibition at 10 µM worked out at 100% and the inhibition at 1 µM was 32%.

Regarding `CCCCCCCCCCC/C=C\C1(C)Cc2c(C)c(O)c(C)c(C)c2O1` (stereo not shown) [Compound 40], at 12-Lipoxygenase, the inhibition at 100 µM is 99%, the inhibition at 10 µM was 96%, the inhibition at 1 µM is 48% and the inhibition at 0.1 µM was 6%.

With `CCCCCCCCCCCCCC1(C)Cc2c(C)c(O)c(C)c(C)c2O1` (stereo not shown) [Compound 41], on 12-Lipoxygenase, the inhibition at 100 µM amounted to 99%, the inhibition at 10 µM was 74%, the inhibition at 1 µM is 20% and the inhibition at 0.1 µM is 9%.
